Results: ChEMBL document CHEMBL5725713, “5-aminopyrazole-4-carboxamide inhibitors of CDPK1 from T. gondii and C. parvum” (2016)

Target: T1, Calmodulin-domain protein kinase 1 (Toxoplasma gondii, UniProt Q9BJF5)
T1 sequence (Q9BJF5 whole entry): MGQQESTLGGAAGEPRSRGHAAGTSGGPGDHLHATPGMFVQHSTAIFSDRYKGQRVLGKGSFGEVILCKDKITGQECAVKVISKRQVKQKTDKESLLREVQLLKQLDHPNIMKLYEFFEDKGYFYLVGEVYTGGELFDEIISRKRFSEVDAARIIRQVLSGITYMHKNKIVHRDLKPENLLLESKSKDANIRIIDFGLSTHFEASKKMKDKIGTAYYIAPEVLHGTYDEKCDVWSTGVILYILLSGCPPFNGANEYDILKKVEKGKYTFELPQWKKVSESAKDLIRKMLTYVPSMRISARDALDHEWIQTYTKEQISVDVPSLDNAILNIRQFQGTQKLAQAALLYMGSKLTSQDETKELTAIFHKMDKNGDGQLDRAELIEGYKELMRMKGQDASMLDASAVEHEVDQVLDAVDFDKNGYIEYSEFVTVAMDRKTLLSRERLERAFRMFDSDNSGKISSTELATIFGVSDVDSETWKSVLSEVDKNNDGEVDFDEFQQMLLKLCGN
Assay: Luminescent Kinase Assay: Inhibition of TgCDPK1 and CpCDPK1 was determined using a luminescent kinase assay which measures ATP depletion in the presence of the Syntide 2 peptide substrate (KinaseGlo). For description of the methods and assays, see WO 2011/094628, incorporated by reference herein.

Work on CC(C)(C)n1cc(C(N)=O)c(-c2ccc3c(N)n[nH]c3c2)n1 yielded an IC50 of 0.04 µM.
